# Measured values reported in PubChem BioAssay AID248 (DTP/NCI, 2004).
# Values joined by “and” are separate entries in the source; they are usually repeats but may differ in a detail not shown here. Identical values can stand only once. Toxic doses and inconclusive results are not listed.
# System: L1210 leukemia ip in BDF1 mice, survival T/C
# Assay: NCI In Vivo Anticancer Drug Screen. Data for tumor model L1210 Leukemia (intraperitoneal) in B6D2F1 (BDF1) mice
# Details: endpoint: mean survival time, higher = longer survival
# Outline: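 Mice bearing the transplanted tumor received compound or vehicle. Survival of the treated group was divided by that of the vehicle-treated control group to give the ratio.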
# [1] = dose: 100.0 mg/kg/injection, schedule: Q04DX003 (ip), vehicle: Klucel (hydroxypropylcellulose) (HPC)
# [2] = dose: 200.0 mg/kg/injection, schedule: Q04DX003 (ip), vehicle: Klucel (hydroxypropylcellulose) (HPC)
# [3] = dose: 400.0 mg/kg/injection, schedule: Q04DX003 (ip), vehicle: Klucel (hydroxypropylcellulose) (HPC)
# [4] = dose: 100.0 mg/kg/injection, schedule: Q01DX009 (ip), vehicle: Klucel (hydroxypropylcellulose) (HPC)
# [5] = dose: 200.0 mg/kg/injection, schedule: Q01DX009 (ip), vehicle: Klucel (hydroxypropylcellulose) (HPC)
# [6] = dose: 400.0 mg/kg/injection, schedule: Q01DX009 (ip), vehicle: Klucel (hydroxypropylcellulose) (HPC)
# [7] = dose: 100.0 mg/kg/injection, schedule: Q01DX009 (ip), vehicle: saline with Tween-80
# [8] = dose: 200.0 mg/kg/injection, schedule: Q01DX009 (ip), vehicle: saline with Tween-80
# [9] = dose: 100.0 mg/kg/injection, schedule: Q04DX003 (ip), vehicle: saline with Tween-80
# [10] = dose: 200.0 mg/kg/injection, schedule: Q04DX003 (ip), vehicle: saline with Tween-80
# [11] = dose: 400.0 mg/kg/injection, schedule: Q04DX003 (ip), vehicle: saline with Tween-80
# [12] = dose: 50.0 mg/kg/injection, schedule: Q01DX009 (ip), vehicle: Klucel (hydroxypropylcellulose) (HPC)
# [13] = dose: 100.0 mg/kg/injection, schedule: Q04DX002 (ip), vehicle: Klucel (hydroxypropylcellulose) (HPC)
# [14] = dose: 200.0 mg/kg/injection, schedule: Q04DX002 (ip), vehicle: Klucel (hydroxypropylcellulose) (HPC)
# [15] = dose: 400.0 mg/kg/injection, schedule: Q04DX002 (ip), vehicle: Klucel (hydroxypropylcellulose) (HPC)
# [16] = dose: 100.0 mg/kg/injection, schedule: Q01DX001 (ip), vehicle: saline
# [17] = dose: 200.0 mg/kg/injection, schedule: Q01DX001 (ip), vehicle: saline
# [18] = dose: 400.0 mg/kg/injection, schedule: Q01DX001 (ip), vehicle: saline
# [19] = dose: 100.0 mg/kg/injection, schedule: Q01DX009 (ip), vehicle: saline
# [20] = dose: 200.0 mg/kg/injection, schedule: Q01DX009 (ip), vehicle: saline
# [21] = dose: 400.0 mg/kg/injection, schedule: Q01DX009 (ip), vehicle: saline
structure (smiles),measurement,setting,value
Cc1cccc(OCCOC(=O)Nc2ccccc2C(F)(F)F)c1,T/C,[1],87 % of control
same,T/C,[2],88 % of control
same,T/C,[3],90 % of control
C=C1CC2(CCC3(CC2)OCCO3)OC1=O,T/C,"dose: 100.0 mg/kg/injection, schedule: Q01DX001 (ip), vehicle: saline with Tween-80",95 % of control
same,T/C,"dose: 200.0 mg/kg/injection, schedule: Q01DX001 (ip), vehicle: saline with Tween-80",95 % of control
same,T/C,"dose: 400.0 mg/kg/injection, schedule: Q01DX001 (ip), vehicle: saline with Tween-80",98 % of control
CCOC(=O)C1=C(C)NC(C)=C(C(=O)OCC)C1C,T/C,"dose: 100.0 mg/kg/injection, schedule: Q01DX001 (ip), vehicle: carboxymethylcellulose (CMC)",111 % of control
same,T/C,"dose: 200.0 mg/kg/injection, schedule: Q01DX001 (ip), vehicle: carboxymethylcellulose (CMC)",116 % of control
same,T/C,"dose: 400.0 mg/kg/injection, schedule: Q01DX001 (ip), vehicle: carboxymethylcellulose (CMC)",106 % of control
Nc1cc(Cl)c(Cl)cc1S(=O)(=O)O,T/C,[4],101 % of control
same,T/C,[1],102 % of control
same,T/C,[5],98 % of control
same,T/C,[2],98 % of control
same,T/C,[6],92 % of control
same,T/C,[3],96 % of control
CCN(Cc1ccccc1)c1cc(=O)[nH]c(=O)[nH]1,T/C,"dose: 48.0 mg/kg/injection, schedule: Q01DX001 (ip), vehicle: Klucel (hydroxypropylcellulose) (HPC)",100 % of control
same,T/C,"dose: 96.0 mg/kg/injection, schedule: Q01DX001 (ip), vehicle: Klucel (hydroxypropylcellulose) (HPC)",102 % of control
same,T/C,"dose: 192.0 mg/kg/injection, schedule: Q01DX001 (ip), vehicle: Klucel (hydroxypropylcellulose) (HPC)",97 % of control
O=C1NC(=S)S/C1=C\c1ccc(Cl)c(Cl)c1,T/C,[7],97 % of control
same,T/C,[8],95 % of control
O=C(Nc1ccccc1)Nc1ccc([N+](=O)[O-])cc1O,T/C,[9],103 % of control
same,T/C,[10],113 % of control
same,T/C,[11],100 % of control
COc1ccc(OP(=O)(N2CC2)N2CC2)cc1,T/C,"dose: 75.0 mg/kg/injection, schedule: Q01DX Z (ip), vehicle: carboxymethylcellulose (CMC)",120 % of control
same,T/C,"dose: 300.0 mg/kg/injection, schedule: Q01DX Z (ip), vehicle: carboxymethylcellulose (CMC)",160 % of control
COC1OC2COc3ccccc3OC2C(NC#N)C1OC (centres undefined),T/C,"dose: 25.0 mg/kg/injection, schedule: Q01DX009 (ip), vehicle: Klucel (hydroxypropylcellulose) (HPC)",102 % of control
same,T/C,[12],96 % of control
same,T/C,[4],93 % of control and 87 % of control
CON(C)S(=O)(=O)c1ccc(Cl)cc1,T/C,[1],100 % of control
same,T/C,[2],103 % of control
same,T/C,[3],105 % of control
CSc1ncnc2n[nH]c(Br)c12,T/C,"dose: 100.0 mg/kg/injection, schedule: Q01DX005 (ip), vehicle: saline",93 % of control
C[N+]1(Cc2c[nH]c3ccsc23)CCCCC1,T/C,"dose: 3.0 mg/kg/injection, schedule: Q01DX009 (ip), vehicle: saline with Tween-80",99 % of control
same,T/C,"dose: 6.0 mg/kg/injection, schedule: Q01DX009 (ip), vehicle: saline with Tween-80",97 % of control
same,T/C,"dose: 12.0 mg/kg/injection, schedule: Q01DX009 (ip), vehicle: saline with Tween-80",90 % of control
same,T/C,"dose: 12.5 mg/kg/injection, schedule: Q04DX003 (ip), vehicle: saline with Tween-80",101 % of control
O=C1CCN(CCN2CCC(=O)N(Cc3ccccc3)C2=S)C(=S)N1Cc1ccccc1,T/C,[13],100 % of control
same,T/C,[14],107 % of control
same,T/C,[15],96 % of control
CCCC1(c2ccccc2)C(C#N)C(=O)NC(=O)C1C#N (centres undefined),T/C,[16],101 % of control
same,T/C,[17],97 % of control
S=P(S)(c1ccccc1)c1ccccc1,T/C,[9],91 % of control
same,T/C,[10],94 % of control
same,T/C,[11],100 % of control
CC(C)(C)NC(=O)C1C(c2ccccc2)C1c1ccccc1 (centres undefined),T/C,[13],90 % of control
same,T/C,[14],113 % of control
same,T/C,[15],100 % of control
Cn1c2c(c(=O)n(C)c1=O)C(=Nc1ccccc1)C(=O)N2,T/C,[16],101 % of control
same,T/C,[17],104 % of control
same,T/C,[18],96 % of control
COc1ccc(OC)c(NC(=O)Nc2ccc(OC)cc2OC)c1,T/C,[19],110 % of control
same,T/C,[20],113 % of control
same,T/C,[21],108 % of control
CC1CNC2C(C)C3C(CC4C5CCC6CC(N=Cc7ccccc7)C(O)CC6(C)C5CCC43C)OC2(O)C1 (centres undefined),T/C,"dose: 100.0 mg/kg/injection, schedule: Q01DX001 (ip), vehicle: Klucel (hydroxypropylcellulose) (HPC)",87 % of control
same,T/C,"dose: 400.0 mg/kg/injection, schedule: Q01DX001 (ip), vehicle: Klucel (hydroxypropylcellulose) (HPC)",91 % of control
CC(=O)OCC(O)CO (centres undefined),T/C,[19],102 % of control
same,T/C,[20],96 % of control
same,T/C,[21],102 % of control
CCn1nnc2c(N(C)C)nc(N)nc21,T/C,[12],93 % of control
same,T/C,[4],95 % of control
same,T/C,[1],93 % of control
same,T/C,[2],92 % of control
CCP(=S)(CC)CCCCCP(=S)(CC)CC,T/C,[9],92 % of control
same,T/C,[10],95 % of control
same,T/C,[11],87 % of control
Cc1ccc([N+](=O)[O-])cc1NC(=O)Nc1ccc(CCO)cc1,T/C,[4],90 % of control
same,T/C,[5],93 % of control
O=C(Nc1cccc2ccccc12)C(Cl)Cl,T/C,[13],100 % of control
same,T/C,[14],93 % of control
same,T/C,[15],93 % of control
CCOC(=O)C1=C(C)NC(C)=C(C(=O)OCC)C1c1ccnc2ccccc12,T/C,"dose: 100.0 mg/kg/injection, schedule: Q01DX001 (ip), vehicle: steriod suspending solution",93 % of control
same,T/C,"dose: 200.0 mg/kg/injection, schedule: Q01DX001 (ip), vehicle: steriod suspending solution",94 % of control
same,T/C,"dose: 400.0 mg/kg/injection, schedule: Q01DX001 (ip), vehicle: steriod suspending solution",89 % of control
CCC1(CCCCCl)OCCO1,T/C,[4],103 % of control
same,T/C,[5],97 % of control
same,T/C,[6],103 % of control
CC(=O)C(C(C)=O)C(=O)c1ccc2ccccc2c1,T/C,"dose: 222.0 mg/kg/injection, schedule: Q01DX Z (ip), vehicle: methylcellulose (MC)",107 % of control
same,T/C,"dose: 333.0 mg/kg/injection, schedule: Q01DX Z (ip), vehicle: methylcellulose (MC)",94 % of control
same,T/C,"dose: 500.0 mg/kg/injection, schedule: Q01DX Z (ip), vehicle: methylcellulose (MC)",96 % of control
Cc1c(Cl)cccc1NC(=O)Nc1cccc(O)c1,T/C,[7],104 % of control and 89 % of control
same,T/C,"dose: 100.0 mg/kg/injection, schedule: Q04DX002 (ip), vehicle: saline with Tween-80",97 % of control and 100 % of control
same,T/C,[9],101 % of control
same,T/C,[8],95 % of control and 97 % of control
same,T/C,"dose: 200.0 mg/kg/injection, schedule: Q04DX002 (ip), vehicle: saline with Tween-80",93 % of control and 89 % of control
same,T/C,[10],100 % of control
same,T/C,"dose: 400.0 mg/kg/injection, schedule: Q01DX009 (ip), vehicle: saline with Tween-80",93 % of control and 90 % of control
same,T/C,"dose: 400.0 mg/kg/injection, schedule: Q04DX002 (ip), vehicle: saline with Tween-80",93 % of control and 94 % of control
same,T/C,[11],97 % of control
c1ccc2cc3c(cc2c1)Nc1ccncc1N3,T/C,"dose: 12.5 mg/kg/injection, schedule: Q01DX009 (ip), vehicle: saline with Tween-80",106 % of control
same,T/C,"dose: 25.0 mg/kg/injection, schedule: Q01DX009 (ip), vehicle: saline with Tween-80",103 % of control
same,T/C,"dose: 50.0 mg/kg/injection, schedule: Q01DX009 (ip), vehicle: saline with Tween-80",100 % of control
O=c1[nH]c2c(cnn2-c2ccccc2)c(=O)n1OS(=O)(=O)c1ccccc1,T/C,"dose: 50.0 mg/kg/injection, schedule: Q01DX001 (ip), vehicle: saline",103 % of control
same,T/C,[16],103 % of control
same,T/C,[17],100 % of control
same,T/C,[18],97 % of control
CCN(CC)CCNC(=O)c1c2nc3c(C(=O)NCCN(CC)CC)ccc(C)c3oc-2c(C)c(=O)c1N,T/C,"dose: 25.0 mg/kg/injection, schedule: Q04DX002 (ip), vehicle: Klucel (hydroxypropylcellulose) (HPC)",101 % of control
same,T/C,"dose: 50.0 mg/kg/injection, schedule: Q04DX002 (ip), vehicle: Klucel (hydroxypropylcellulose) (HPC)",97 % of control
same,T/C,"dose: 75.0 mg/kg/injection, schedule: Q01DX001 (ip), vehicle: carboxymethylcellulose (CMC)",105 % of control
same,T/C,[13],94 % of control
